What was measured:
Assay type in all cases: in vivo
[1] = test system: Matricaria inodora; test: Herbicidal action post-emergence (greenhouse pot trial); conditions: application rate 20 g/ha, scored visually after about 3 weeks vs untreated controls
Outline: (§1)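 Post-emergence spray at one-leaf stage (2–3 wk after sowing, sandy loam, greenhouse); WP/EC in water + 0.5% additive; 600 L/ha; rate 80 g/ha or less. Visual % efficacy at ~3 wk vs untreated (100 = dead).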

[2] = test system: Setaria viridis; test: as above; conditions: application rate 20 g/ha, scored visually after about 3 weeks vs untreated controls
Outline: as §1

[3] = test system: Pharbitis purpurea; test: as above; conditions: application rate 20 g/ha
Outline: as §1

[4] = test system: Viola tricolor; test: as above; conditions: application rate 20 g/ha
Outline: as §1

[5] = test system: Amaranthus retroflexus; test: as above; conditions: application rate 20 g/ha, scored visually after about 3 weeks vs untreated controls
Outline: as §1

[6] = test system: Veronica persica; test: as above; conditions: application rate 20 g/ha
Outline: as §1

[7] = test system: Polygonum convolvulus; test: as above; conditions: application rate 20 g/ha, scored visually after about 3 weeks vs untreated controls
Outline: as §1

[8] = test system: Abutilon theophrasti; test: as above; conditions: application rate 20 g/ha, scored visually after about 3 weeks vs untreated controls
Outline: as §1

[9] = test system: Oryza sativa; test: Crop compatibility post-emergence (greenhouse pot trial)
Outline: (§2)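 Crop seeds sown in sandy loam and grown in the greenhouse 2 to 3 weeks were treated at the one-leaf stage. WP or EC formulations were sprayed as aqueous suspension/emulsion with 0.5% additive at 600 L/ha. Damage was scored visually about 3 weeks later versus untreated controls (0% = like control, 100% = dead).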

[10] = test system: Triticum aestivum; test: as above
Outline: as §2

[11] = test system: Glycine max; test: as above; conditions: application rate 20 g/ha
Outline: as §2

[12] = test system: Zea mays; test: as above; conditions: application rate 20 g/ha
Outline: as §2

[13] = test system: Glycine max; test: Crop compatibility pre-emergence (greenhouse pot trial); conditions: application rate 80 g/ha, effect vs untreated controls
Source text: (§3) Seeds of mono- and dicotyledonous weeds and crop plants were laid out in plastic or organic plant pots and covered with soil. The compounds of the invention formulated in the form of wettable powders (WP) or emulsion concentrates (EC) were then applied to the surface of the covering soil as an aqueous suspension or emulsion with addition of 0.5% additive at a water application rate equivalent to 600 L/ha. After the treatment, the pots were placed in a greenhouse and kept under good growth conditions for the test plants. After about 3 weeks, the efficacy of the preparations was scored visually as a percentage by comparison with untreated controls. For example, 100% efficacy=plants have died, 0% efficacy=like control plants.
(§4) Crop compatibilities were also scored correspondingly.
(§5) The effects observed are reported here on selected crop plants by comparison with the untreated controls (values in %).

[14] = test system: Zea mays; test: as above; conditions: application rate 80 g/ha, effect vs untreated controls
Source text: as §3, §4, §5

[15] = test system: Stellaria media; test: Herbicidal action post-emergence (greenhouse pot trial); conditions: application rate 20 g/ha, scored visually after about 3 weeks vs untreated controls
Outline: as §1

[16] = test system: Matricaria inodora; test: Herbicidal action pre-emergence (greenhouse pot trial); conditions: scored after about 3 weeks
Source text: as §3, with “control plants. Tables B1 to B16 below show the efficacies of selected compounds of the general formula (I) according to tables I.1 to I.60 on various harmful plants and an application rate corresponding to 320 g/ha or lower that were obtained by the aforementioned trial method.” for “control plants.”

[17] = test system: Viola tricolor; test: as above; conditions: scored after about 3 weeks
Source text: as §3, with “control plants. Tables B1 to B16 below show the efficacies of selected compounds of the general formula (I) according to tables I.1 to I.60 on various harmful plants and an application rate corresponding to 320 g/ha or lower that were obtained by the aforementioned trial method.” for “control plants.”

[18] = test system: Amaranthus retroflexus; test: as above; conditions: scored after about 3 weeks
Source text: as §3, with “control plants. Tables B1 to B16 below show the efficacies of selected compounds of the general formula (I) according to tables I.1 to I.60 on various harmful plants and an application rate corresponding to 320 g/ha or lower that were obtained by the aforementioned trial method.” for “control plants.”

[19] = test system: Abutilon theophrasti; test: as above; conditions: scored after about 3 weeks
Source text: as §3, with “control plants. Tables B1 to B16 below show the efficacies of selected compounds of the general formula (I) according to tables I.1 to I.60 on various harmful plants and an application rate corresponding to 320 g/ha or lower that were obtained by the aforementioned trial method.” for “control plants.”

[20] = test system: Setaria viridis; test: as above; conditions: application rate 320 g/ha, scored after about 3 weeks
Source text: as §3, with “control plants. Tables B1 to B16 below show the efficacies of selected compounds of the general formula (I) according to tables I.1 to I.60 on various harmful plants and an application rate corresponding to 320 g/ha or lower that were obtained by the aforementioned trial method.” for “control plants.”

[21] = test system: Echinochloa crus-galli; test: as above; conditions: application rate 320 g/ha, scored after about 3 weeks
Source text: as §3, with “control plants. Tables B1 to B16 below show the efficacies of selected compounds of the general formula (I) according to tables I.1 to I.60 on various harmful plants and an application rate corresponding to 320 g/ha or lower that were obtained by the aforementioned trial method.” for “control plants.”

[22] = test system: Pharbitis purpurea; test: as above; conditions: application rate 320 g/ha
Source text: as §3, with “control plants. Tables B1 to B16 below show the efficacies of selected compounds of the general formula (I) according to tables I.1 to I.60 on various harmful plants and an application rate corresponding to 320 g/ha or lower that were obtained by the aforementioned trial method.” for “control plants.”

| SMILES | Matricaria inodora (Efficacy in %) [1] [%] | Pharbitis purpurea (Efficacy in %) [3] [%] | Viola tricolor (Efficacy in %) [4] [%] | Amaranthus retroflexus (Efficacy in %) [5] [%] | Veronica persica (Efficacy in %) [6] [%] | Polygonum convolvulus (Efficacy in %) [7] [%] | Abutilon theophrasti (Efficacy in %) [8] [%] | Oryza sativa (Efficacy in %) ([9]; application rate 20 g/ha) [%] | Triticum aestivum (Efficacy in %) ([10]; application rate 20 g/ha) [%] | Glycine max (Efficacy in %) [11] [%] | Zea mays (Efficacy in %) [12] [%] | Glycine max (Efficacy in %) [13] [%] | Zea mays (Efficacy in %) [14] [%] | also measured |
| --- | --- | --- | --- | --- | --- | --- | --- | --- | --- | --- | --- | --- | --- | --- |
| Cc1c(C(F)(F)F)n(C)c(=O)n(-c2cc(SC(CC(C)C)C(=O)OCC3CCOC3)c(Cl)cc2F)c1=O (stereo not shown) [I.14-72] | 80 | 80 | 100 | 100 | 100 | 80 | 80 | 0 | 20 | 20 |  |  |  | Setaria viridis (Efficacy in %) [2]: 100% |
| Cc1c(C(F)(F)F)n(C)c(=O)n(-c2cc(SC(CC(C)C)C(=O)OCC3CCCO3)c(Cl)cc2F)c1=O (stereo not shown) [I.14-71] |  | 100 |  | 100 | 100 |  | 100 | 0 | 0 | 0 | 0 |  |  |  |
| CC(Sc1cc(-n2c(=O)cc(C(F)(F)F)n(C)c2=O)c(F)cc1Cl)C(=O)OC1CCSCC1 (stereo not shown) [I.1-132] | 100 | 100 | 100 | 100 | 100 | 100 | 100 | 0 |  |  | 20 | 20 | 0 | Stellaria media (Efficacy in %) [15]: 80%; Matricaria inodora (Efficacy in %) ([16]; application rate 80 g/ha): 100%; Viola tricolor (Efficacy in %) ([17]; application rate 80 g/ha): 90%; Amaranthus retroflexus (Efficacy in %) ([18]; application rate 80 g/ha): 100%; Abutilon theophrasti (Efficacy in %) ([19]; application rate 80 g/ha): 100%; Triticum aestivum (Efficacy in %) ([10]; application rate 5 g/ha): 10% |
| COCCOCCOC(=O)C(C)Sc1cc(-n2c(=O)cc(C(F)(F)F)n(C)c2=O)c(F)cc1Cl (stereo not shown) [I.1-23] |  |  |  |  |  |  |  |  |  |  |  | 0 | 10 | Matricaria inodora (Efficacy in %) ([16]; application rate 320 g/ha): 100%; Setaria viridis (Efficacy in %) [20]: 100%; Echinochloa crus-galli (Efficacy in %) [21]: 100%; Pharbitis purpurea (Efficacy in %) [22]: 100%; Viola tricolor (Efficacy in %) ([17]; application rate 320 g/ha): 100%; Amaranthus retroflexus (Efficacy in %) ([18]; application rate 320 g/ha): 100%; Abutilon theophrasti (Efficacy in %) ([19]; application rate 320 g/ha): 100%; Oryza sativa (Efficacy in %) ([9]; application rate 5 g/ha): 10% |

Reference: patent US11497212B2, “Substituted thiophenyl uracils, salts thereof and the use thereof as herbicidal agents” (Syngenta Crop Protection AG, priority 2017, dated 2022)
